Measurements as given in paper PMC11727334, “A self-immolative Kdn-glycoside substrate enables high-throughput screening for inhibitors of Kdnases” (Glycobiology, 2024).

Assays:
[1] = no reference given; cited from earlier work
[2] = Base promoted cyclization of liberated aglycon after carbonate stop solution; type: physicochemical; settings: after addition of carbonate stop solution, pH ≈ 10
Method: With Kdn glycoside 4 in hand, we began assay development. […] We reasoned that hydroxyl group activation is required for cyclization. We therefore allowed the enzymatic reaction to proceed for 5 min and then raised the pH of the solution to a pH of ≈ 10 by addition of a solution of K2CO3 (Fig. 1D). We opted for this raised pH value because it would both facilitate cyclization releasing the 4MU reporter and also terminate the enzyme-catalyzed substrate hydrolysis. Using this approach, we observed a significant increase in fluorescence attributable to AfK-catalyzed hydrolysis of substrate 4. […] That is, in the absence of Kdnase, no hydroxycarbamate aglycon 6 is formed. […] Thus, >98% of the fluorescence signal is produced within 15 min following addition of the basic buffer (Fig. S2, supporting information).

AfK = target: T1, AfK (Aspergillus fumigatus, UniProt Q4WQS0); assay: Kdnase activity assay: Michaelis-Menten parameters for AfK-catalyzed hydrolysis of substrates; type: biochemical; settings: 100 mM NaOAc pH 4, 0.01% BSA, 21 °C
T1 construct: AfK was expressed and purified as described by Telford et al; made in house
T1 sequence (Q4WQS0 21-406): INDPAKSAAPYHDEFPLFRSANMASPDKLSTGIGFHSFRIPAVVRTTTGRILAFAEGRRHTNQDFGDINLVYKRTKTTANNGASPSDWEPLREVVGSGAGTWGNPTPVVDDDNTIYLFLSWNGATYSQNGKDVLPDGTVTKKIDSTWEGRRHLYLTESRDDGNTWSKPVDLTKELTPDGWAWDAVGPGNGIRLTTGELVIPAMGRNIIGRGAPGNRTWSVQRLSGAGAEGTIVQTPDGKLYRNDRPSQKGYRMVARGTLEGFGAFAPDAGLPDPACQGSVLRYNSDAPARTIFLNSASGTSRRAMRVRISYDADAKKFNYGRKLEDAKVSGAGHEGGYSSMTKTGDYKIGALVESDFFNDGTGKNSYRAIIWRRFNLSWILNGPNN
Description: Next, we measured the Michaelis–Menten parameters for AfK-catalyzed hydrolysis of 4 so as to guide assay optimization for the downstream HTS. Specifically, we added stop solution to the AfK-catalyzed reaction at various times and then, after cyclization we measured the fluorescence, which we converted to product concentration using a standard calibration curve (Figs S3–S5, Supporting Information). As expected, our alkyl Kdn glycoside undergoes enzyme-catalyzed hydrolysis with lower rate constants than those for the activated Kdn glycoside 4MU-Kdn. Specifically, the second-order rate constant (kcat/Km) for the AfK-catalyzed hydrolysis of 4 is (4.0 ± 0.8) × 10^3 M^−1 s^−1, while that for 4MU-Kdn (1) is (1.8 ± 0.1) × 10^5 M^−1 s^−1 ([Yeung et al. 2013]) (Table S1, Supporting Information).
The activity of AfK was determined by measuring cleavage of the synthetic Kdnase substrate Kdn-SICL-4MU 4 (Fig. 1). Substrate 4 was incubated at rt for 10 min followed by the addition purified recombinant enzyme. A stop solution containing 100 mM K2CO3 pH ≈ 12 was added at a series of time points starting from 5, 10, 15, 30, 45, 60, 120, 180 min. […] The substrate concentration used ranged of 2–2,000 μM and the amount of 4-methylumbelliferone (4MU) released from 4 was determined using a fluorescence spectrophotometer (BioTek Neo 2) at excitation and emission wavelengths of 360 and 450 nm, respectively. […]

**Q.** Which pKa [1] does the source give for `Cc1cc(=O)oc2cc(O)ccc12` [4MU, 4-methylumbelliferone] here?
**A.** The pKa was 8.4.

**Q.** Which “half-life (t1/2) of first-order cyclization” value [2] does the source give for `Cc1cc(=O)oc2cc(OC(=O)N(C)CCO)ccc12` [compound 6] here?
**A.** Its value is “approximately 2.5 min”.

**Q.** What does the source list for `Cc1cc(=O)oc2cc(OC(=O)N(C)CCO[C@]3(C(=O)O)C[C@H](O)[C@@H](O)[C@H]([C@H](O)[C@H](O)CO)O3)ccc12` [compound 4, N-methyl-(N-4′-methylumbelliferylcarbonyl)-2-aminoethyl 3-deoxy-D-glycero-α-D-galacto-non-2-ulopyranosidonic acid]?
**A.** Km (AfK): 950 µM; kcat (AfK): 3.7 ± 0.2 s–1
